Reference: US12393007B2, “Method for adapting optical properties of an immersion mixture, and immersion mixtures and components thereof” (Carl Zeiss Microscopy GmbH, priority 2018, dated 2025)
Structures can show the parent of a compound that is named as a salt. Where two headings read alike, the source gives them in different places.

Assays:
[1] = Refractive index ne at 23° C., reference wavelength 546.1 nm; format: physicochemical
[2] = source Merck; cited from earlier work
[3] = pure substance, 23° C., 546.1 nm

ne (refractive index) of the substance [1, 3] | Compound | further results
1.4518 | CCCC(O)C(CC)CO (centres unmarked) [2-ethylhexane-1,3-diol] | 
 | OCC(F)(OC(F)(F)C(F)(OC(F)(F)C(F)(F)C(F)(F)F)C(F)(F)F)C(F)(F)F (centres unmarked) [Cheminox PO-3-OH, 2,3,3,3-tetrafluoro-2-[1,1,2,3,3,3-hexafluoro-2-(heptafluoropropoxy)propoxy]-1-propanol] | ne (refractive index) of the substance [1]: 1.2944
1.4511 | CCCCC(CC)COC(=O)CCCCCCCCC(=O)OCC(CC)CCCC (centres unmarked) [bis (2-ethylhexyl) sebacate] | 
1.4244 | CC(=O)CC(C)(C)O [diacetone alcohol, 4-hydroxy-4-methyl-2-pentanone] | 
1.4419 | CCOC(=O)/C=C/C(=O)OCC [diethyl fumarate] | 
1.4414 | CCOC(=O)/C=C\C(=O)OCC [diethyl maleate] | 
1.4200 | CCOC(=O)CCC(=O)OCC [diethyl succinate] | 
1.4126 | CCOCCOCCOCC [diethylene glycol diethyl ether] | 
1.4289 | COC(=O)CCCCC(=O)OC [dimethyl adipate] | 
1.4435 | COC(=O)/C=C\C(=O)OC [dimethyl maleate] | 
1.4161 | CC(=O)OCCOC(C)=O [ethylene glycol diacetate] | 
 | O.O.O.O.O.O.O.O=S(=O)([O-])[O-].[Mg+2] [magnesium sulfate heptahydrate] | ne (refractive index) of aqueous solution 200 g/L [1]: 1.3529
 | O.O.[Na+].[Na+].[O]=[Mo](=[O])([O-])[O-] [sodium molybdate dihydrate] | solubility in water (20° C.) [2]: 840 mg/mL
 | O=C([O-])c1ccccc1O.[Na+] [sodium salicylate] | ne (refractive index) of aqueous solution 200 g/L [1]: 1.3747
 | N#C[S-].[Na+] [sodium thiocyanate] | ne (refractive index) of aqueous solution 200 g/L [1]: 1.3765
 | O.O.[Na+].[Na+].[O]=[W](=[O])([O-])[O-] [sodium tungstate dihydrate] | solubility in water (20° C.) [2]: 730 mg/mL; ne (refractive index) of aqueous solution 200 g/L [1]: 1.3531
1.4431 | CCOC(=O)CC(O)(CC(=O)OCC)C(=O)OCC [triethyl citrate] | 
1.4449 | CCCCC(CC)C(=O)OCCOCCOCCOC(=O)C(CC)CCCC (centres unmarked) [triethylene glycol bis(2-ethylhexanoate)] | 
 | ammonium sulfate | ne (refractive index) of aqueous solution 200 g/L [1]: 1.3629
1.3220 | bis(hydroxymethyl)perfluoropolyether [Cheminox OXF-3PO-OH] | 
 | dimethyl propylene urea | ne (refractive index) of the substance [1]: 1.4909
 | tetrahydrofurfuryl alcohol polyethylene glycol ether | ne (refractive index) of the substance [1]: 1.4621
